Source: the supplement of paper PMC10307832

Legend:
Assay in all cases: relative viability (nuclei count vs DMSO), 5 days (fraction); higher = more cells survive
Linsitinib + Pemetrexed = compound: C[C@]1(O)C[C@@H](c2nc(-c3ccc4ccc(-c5ccccc5)nc4c3)c3c(N)nccn32)C1 [Linsitinib] + Nc1nc2[nH]cc(CCc3ccc(C(=O)N[C@@H](CCC(=O)O)C(=O)O)cc3)c2c(=O)[nH]1 [Pemetrexed] (partner 0.2 µM)
Method in brief: (§1)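 Each reported value is a median over duplicate plates. It expresses relative viability: treated-well nuclei count divided by vehicle-well nuclei count. Lung cancer cell lines in 1536-well plates were dosed by pin tool a day after seeding, alone with one drug or with a fixed anchor-drug dose plus five library-drug doses (not always all listed) in √10 steps, and nuclei were counted after 5 days.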

Ispinesib + Dasatinib = compound: Cc1ccc(C(=O)N(CCCN)[C@@H](c2nc3cc(Cl)ccc3c(=O)n2Cc2ccccc2)C(C)C)cc1 [Ispinesib] + Cc1nc(Nc2ncc(C(=O)Nc3c(C)cccc3Cl)s2)cc(N2CCN(CCO)CC2)n1 [Dasatinib] (partner 0.075 µM)
Method in brief: as §1

Linsitinib + Crizotinib = compound: C[C@]1(O)C[C@@H](c2nc(-c3ccc4ccc(-c5ccccc5)nc4c3)c3c(N)nccn32)C1 [Linsitinib] + C[C@@H](Oc1cc(-c2cnn(C3CCNCC3)c2)cnc1N)c1c(Cl)ccc(F)c1Cl [Crizotinib] (partner 1 µM)
Method in brief: as §1

Ispinesib + Luminespib = compound: Cc1ccc(C(=O)N(CCCN)[C@@H](c2nc3cc(Cl)ccc3c(=O)n2Cc2ccccc2)C(C)C)cc1 [Ispinesib] + CCNC(=O)c1noc(-c2cc(C(C)C)c(O)cc2O)c1-c1ccc(CN2CCOCC2)cc1 [Luminespib] (partner 0.01 µM)
Method in brief: as §1

## UMC-11
Linsitinib + Pemetrexed; first compound 0.01 µM
  relative viability: 0.7
Linsitinib + Pemetrexed; first compound 0.03162 µM
  relative viability: 0.771
Linsitinib + Pemetrexed; first compound 0.1 µM
  relative viability: 0.817
Linsitinib + Pemetrexed; first compound 0.3162 µM
  relative viability: 0.597
Linsitinib + Pemetrexed; first compound 1 µM
  relative viability: 0.776
Ispinesib + Dasatinib; first compound 0.001 µM
  relative viability: 0.542
Ispinesib + Dasatinib; first compound 0.003162 µM
  relative viability: 0.544
Ispinesib + Dasatinib; first compound 0.01 µM
  relative viability: 0.317
Ispinesib + Dasatinib; first compound 0.03162 µM
  relative viability: 0.185
Ispinesib + Dasatinib; first compound 0.1 µM
  relative viability: 0.233
Linsitinib + Crizotinib; first compound 0.01 µM
  relative viability: 0.698
Linsitinib + Crizotinib; first compound 0.03162 µM
  relative viability: 0.448
Linsitinib + Crizotinib; first compound 0.1 µM
  relative viability: 0.642
Linsitinib + Crizotinib; first compound 1 µM
  relative viability: 0.549
Ispinesib + Luminespib; first compound 0.001 µM
  relative viability: 0.919
Ispinesib + Luminespib; first compound 0.003162 µM
  relative viability: 1.02
Ispinesib + Luminespib; first compound 0.01 µM
  relative viability: 1.05
Ispinesib + Luminespib; first compound 0.03162 µM
  relative viability: 0.451
Ispinesib + Luminespib; first compound 0.1 µM
  relative viability: 0.323
